*: point of attachment. FITC = O=C1OC2(c3ccc(O)cc3Oc3cc(O)ccc32)c2ccc(NC(=S)*)cc21; Ahx = NCCCCCC(=O)O
Key:
recombinant GST-MDM2 = molecular target: T1, recombinant GST-MDM2 (Homo sapiens, UniProt Q00987); test: In vitro ubiquitination assay of p53 performed by recombinant GST-MDM2; format: biochemical
T1 construct: GST (N)
Excerpt: (§1) Further experiments have been performed to define the role of peptide 3 composition in its molecular and biological activity. […] Supporting these new experimental data about the importance of Isoleucine 489 and Phenylalanine 488, molecular dynamic simulations have shown that these residues engage in specific hydrophobic and aromatic interactions with MDM2 (FIG. 11). In particular, Isoleucine 489 is harbored in a hydrophobic cleft composed of Alanine 434, Isoleucine 435 and Leucine 458 of MDM2 protein. Likewise, Phenylalanine 488 forms aromatic interactions with a Histidine residue (HID-457) of MDM2 protein.

p53/MDM4 binding = molecular target: T2, p53/MDM4 binding (Homo sapiens, UniProt O15151); test: Immunoprecipitation / western blot of p53 binding to MDM4 after peptide transfection in HCT116 cells; format: cell-based
T2 construct: MDM4 or MDM2 immunoprecipitation after peptide transfection in HCT116 cancer cell line; endogenous in cells; host or cells: HCT116 wt (p53+/+) colon carcinoma cells
T2 sequence (O15151 whole entry): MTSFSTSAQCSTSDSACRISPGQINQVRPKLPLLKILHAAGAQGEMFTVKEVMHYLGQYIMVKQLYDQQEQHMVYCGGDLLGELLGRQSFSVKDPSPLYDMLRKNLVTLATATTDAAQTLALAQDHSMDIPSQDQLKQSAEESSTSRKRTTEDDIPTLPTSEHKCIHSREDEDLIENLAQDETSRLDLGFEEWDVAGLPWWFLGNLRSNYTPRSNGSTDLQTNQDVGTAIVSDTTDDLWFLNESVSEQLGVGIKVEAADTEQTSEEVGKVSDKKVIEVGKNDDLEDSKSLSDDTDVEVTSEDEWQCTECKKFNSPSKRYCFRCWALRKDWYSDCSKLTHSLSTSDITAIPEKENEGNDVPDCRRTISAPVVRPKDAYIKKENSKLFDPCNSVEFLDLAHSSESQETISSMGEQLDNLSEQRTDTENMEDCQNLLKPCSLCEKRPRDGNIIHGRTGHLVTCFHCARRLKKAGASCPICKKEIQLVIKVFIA
T2 sequence (P04637 whole entry partner): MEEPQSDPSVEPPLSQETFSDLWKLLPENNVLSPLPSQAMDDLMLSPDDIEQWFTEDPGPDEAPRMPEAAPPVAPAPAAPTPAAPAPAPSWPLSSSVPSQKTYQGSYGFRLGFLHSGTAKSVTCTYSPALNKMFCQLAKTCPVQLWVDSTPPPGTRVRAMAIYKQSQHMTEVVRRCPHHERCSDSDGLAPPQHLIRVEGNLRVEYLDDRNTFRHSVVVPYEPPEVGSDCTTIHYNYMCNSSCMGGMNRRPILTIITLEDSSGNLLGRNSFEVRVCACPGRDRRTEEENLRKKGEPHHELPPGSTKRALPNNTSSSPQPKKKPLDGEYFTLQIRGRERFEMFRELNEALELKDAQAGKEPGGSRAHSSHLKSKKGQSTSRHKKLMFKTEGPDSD
Experimental: Cells have been lysed using Saito lysis modified reagent (50 mM Tris-HCl, pH 7.4, 0.15 M NaCl, 0.5% Triton-X100, 5 mM EDTA). For p53 immunoprecipitation and BCL2 and MDM4 analysis EBC modified solution has been used (50 mM Tris-HCl, pH 7.4, 0.12 M NaCl, 0.4% NP-40, 1 mM EDTA, 1 Mm β-mercaptoethanol).
400 μg of total protein extract has been incubated with protein G (Invitrogen) for 2 hours under stirring at 4° C. in order not specific binding of proteins with said substrate can occur. Afterwards the cellular extract has been centrifuged, not specific complexes removed with precipitate and supernatant has been incubated for 16 hours with specific antibody. Successively, protein G has been added and incubated for 2 hour at 4° C. […]
(§2) It has been investigated whether peptides were able to enter the cell simply by addition thereof at given concentration (5 μM) to cell culture medium and analyzing for the presence thereof by confocal and fluorescence microscopy, each peptide being labeled with green fluorophore (FAM). It has been observed that peptides were detected in cells only after transfection by liposomes. Successively, the ability of peptides to disrupt the binding by MDM4 or MDM2 immunoprecipitation after peptide transfection in HCT116 cancer cell line, and detection of presence of corresponding partner in immunocomplex by western blot assay have been evaluated. […]

[1] = tested on: HCT116 wt and p53−/− cells; test: TUNEL assay of apoptosis in cells transfected with FITC tagged peptides; format: cell-based; settings: among transfected (green) cells
Experimental: In order to specifically detect apoptotic cells, TUNEL assay was carried out in HCT116 wt and p53−/− cells transfected with FITC tagged peptides. Percentage of apoptotic cells was evaluated specifically among the transfected cells (green population).
as §1

HCT116 wt cells = test: Cell death by cytofluorimetric analysis (Propidium Iodide) of cells transfected with FITC tagged peptides; format: cell-based; settings: for induction of apoptotic response / cellular apoptosis: HCT116 cells transfected with peptide
Experimental: (§3) Cytofluorimetric analysis was carried out on HCT116 wt and p53−/− cells transfected with FITC tagged peptides and stained with Propidium Iodide (PI). Percentage of dead cells was evaluated specifically among the transfected cells (green population).
(§4) Cytofluorimetric analysis was performed on HCT116 wt and p53−/− cells transfected with FITC tagged peptides and stained with Propidium Iodide (PI). Percentage of dead cells was evaluated specifically among the transfected cells (green population).
(§5) It has been investigated whether peptides were able to enter the cell simply by addition thereof at given concentration (5 μM) to cell culture medium and analyzing for the presence thereof by confocal and fluorescence microscopy, each peptide being labeled with green fluorophore (FAM). It has been observed that peptides were detected in cells only after transfection by liposomes. Successively, the ability of peptides to disrupt the binding by MDM4 or MDM2 immunoprecipitation after peptide transfection in HCT116 cancer cell line, and detection of presence of corresponding partner in immunocomplex by western blot assay have been evaluated. Two HCT116 wild type and HCT116 p53−/− syngeneic cell lines have been used in order to understand also observed effect dependence on the presence of p53.

HCT116 p53−/− cells = test: as above; format: cell-based; settings: HCT116 p53−/− compared with wt
Experimental: as §3, §4, §5

MDM4/MDM2 complex = molecular target: T3, MDM4/MDM2 complex (Homo sapiens, UniProt O15151+Q00987); test: Immunoprecipitation / western blot of MDM4/MDM2 complex after peptide transfection in HCT116 cells; format: cell-based; settings: HCT116 wild type and p53−/−
T3 construct: immunoprecipitation of MDM4 has been carried out on cell lysates; endogenous in cells; host or cells: HCT116 wt and HCT116 p53-/- colon carcinoma cells
T3 sequence (O15151 whole entry): as the sequence (O15151 whole entry) above
T3 sequence (Q00987 whole entry): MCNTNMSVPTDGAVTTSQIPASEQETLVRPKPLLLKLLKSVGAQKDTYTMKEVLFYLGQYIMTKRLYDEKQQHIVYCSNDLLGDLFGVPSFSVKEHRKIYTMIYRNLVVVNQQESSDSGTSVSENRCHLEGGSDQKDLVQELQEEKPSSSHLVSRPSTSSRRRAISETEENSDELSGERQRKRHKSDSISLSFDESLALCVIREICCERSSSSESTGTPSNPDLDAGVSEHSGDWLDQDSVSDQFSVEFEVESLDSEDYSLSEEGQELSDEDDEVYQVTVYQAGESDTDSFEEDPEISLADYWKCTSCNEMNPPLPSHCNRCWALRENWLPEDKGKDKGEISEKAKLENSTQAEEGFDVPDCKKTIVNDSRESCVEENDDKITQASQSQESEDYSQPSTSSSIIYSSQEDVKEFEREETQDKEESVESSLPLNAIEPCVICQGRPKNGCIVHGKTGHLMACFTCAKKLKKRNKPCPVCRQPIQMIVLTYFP
Excerpt: Transient transfection of peptides has been carried out in HCT116 wt and p53−/− colon carcinoma cell lines and the immunoprecipitation of MDM4 has been carried out on cell lysates in order to detect the presence of MDM2 within the immunocomplex, by western blot analysis.
Transient transfection of peptides has been carried out in HCT116 wt and p53−/− colon carcinoma cell lines and the immunoprecipitation of MDM4 has been performed on cell lysates in order to detect the presence of MDM2 within the immunocomplex by western blot analysis.
Cells have been lysed using Saito lysis modified reagent (50 mM Tris-HCl, pH 7.4, 0.15 M NaCl, 0.5% Triton-X100, 5 mM EDTA). […]
as §2

T1 sequence (Q00987 whole entry): as above

| Substance | inhibition of ubiquitination of p53 (recombinant GST-MDM2) | effect on binding of p53 to MDM4 (p53/MDM4 binding) | induction of apoptosis (TUNEL) [1] | induction of apoptotic response / cellular apoptosis (HCT116 wt cells) | induced death in p53 lacking versus p53 harboring cells (HCT116 p53−/− cells) | ability to dissociate MDM4/MDM2 complex (MDM4/MDM2 complex) | cell death response in comparison to the control Scramble peptide (HCT116 wt cells; HCT116 p53+/+ cells) |
| --- | --- | --- | --- | --- | --- | --- | --- |
| AIKIFVKVLEIQ (peptide composed with the same aminoacids of SEQ ID NO3 but arranged in different order) [Peptide SC3B] | ineffective |  |  |  |  |  |  |
| FITC-Ahx-KEIQLVIKVFIA-CONH2 (HELM PEPTIDE1{[O=C1OC2(c3ccc(O)cc3Oc3cc(O)ccc32)c2ccc(NC(=S)[*:2])cc21].[O=C(CCCCCN[*:1])[*:2]].K.E.I.Q.L.V.I.K.V.F.I.A.[am]}$$$$V2.0; SMILES CC[C@H](C)[C@H](NC(=O)[C@H](Cc1ccccc1)NC(=O)[C@@H](NC(=O)[C@H](CCCCN)NC(=O)[C@@H](NC(=O)[C@@H](NC(=O)[C@H](CC(C)C)NC(=O)[C@H](CCC(N)=O)NC(=O)[C@@H](NC(=O)[C@H](CCC(=O)O)NC(=O)[C@H](CCCCN)NC(=O)CCCCCNC(=S)Nc1ccc2c(c1)C(=O)OC21c2ccc(O)cc2Oc2cc(O)ccc21)[C@@H](C)CC)C(C)C)[C@@H](C)CC)C(C)C)C(=O)N[C@@H](C)C(N)=O) [Peptide 3, FITC-Ahx tagged, C-terminal amide] | inhibit the ubiquitinatin activity of MDM2 towards p53 | does not dissociate p53 from MDM4 | induce apoptosis | highly effective in inducing cellular apoptosis | meaningfully lower in p53 lacking than harboring cells | highly effective in dissociating said two molecules |  |
| KEIQLVIKVAEA (MDM4 sequence of the interaction domain between MDM4 and MDM2 from aa 479 to aa 490 of MDM4 in which FI in positions 10 and 11 of said sequence has been substituted with AE) [Peptide 3D, reference compound] | completely ineffective |  | completely ineffective |  |  |  |  |
| VQEAFKLIKIVI (peptide composed with the same aminoacids of SEQ ID NO3 but arranged in different order) [Peptide SC3A] | ineffective |  |  |  |  |  |  |
| {FITC-Ahx}-ESSLPLNAIEPS-NH2 [Peptide 1] |  | able to preserve the binding of p53 to MDM4 |  | induce a significant apoptotic response |  | suitable to dissociate said two proteins | significantly higher in comparison to the control Scramble peptide |

Reference: patent US20130217634A1, “PEPTIDES ABLE TO INTERFERE WITH THE INHIBITING ACTIVITY OF MDM2/MDM4 HETERODIMER TOWARDS P53 AND USE THEREOF FOR CANCER TREATMENT” (UNIVERSITA' DEGLI STUDI DI PERUGIA, priority 2012, published 2013)
